Assay results reported in ChEMBL document CHEMBL1201862, “PubChem BioAssay data set” (2004).
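The compound was tested at five concentrations on cells cultured in 96-well plates, with a 48-hour exposure period. GI50 marks 50% less growth.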 Calls of active or inactive are those of the source. Cut-off read from the data, not from the text of the source: active = GI50 up to about 1.1 µM and inactive = higher.

Key:
Assay in all cases: DTP human tumour cell line panel, 48 h
[1] = test system: 786-0
[2] = test system: A498
[3] = test system: A549
[4] = test system: ACHN
[5] = test system: CAKI-1
[6] = test system: CCRF-CEM
[7] = test system: COLO 205
[8] = test system: DLD-1
[9] = test system: DMS-273
[10] = test system: EKVX
[11] = test system: HCC 2998
[12] = test system: HCT-116
[13] = test system: HCT-15
[14] = test system: HL-60
[15] = test system: HOP-18
[16] = test system: HOP-62
[17] = test system: HOP-92
[18] = test system: HT-29
[19] = test system: IGROV-1
[20] = test system: K562
[21] = test system: KM-20L2
[22] = test system: KM12
[23] = test system: LOX IMVI
[24] = test system: LXFL 529
[25] = test system: M14
[26] = test system: M19-MEL
[27] = test system: MOLT-4
[28] = test system: Malme-3M
[29] = test system: NCI-H226
[30] = test system: NCI-H23
[31] = test system: NCI-H460
[32] = test system: NCI-H522
[33] = test system: OVCAR-3
[34] = test system: OVCAR-4
[35] = test system: OVCAR-5
[36] = test system: OVCAR-8
[37] = test system: RXF 393
[38] = test system: SF-268
[39] = test system: SF-295
[40] = test system: SF-539
[41] = test system: SK-MEL-28
[42] = test system: SK-MEL-2
[43] = test system: SK-MEL-5
[44] = test system: SK-OV-3
[45] = test system: SN12C
[46] = test system: SNB-19
[47] = test system: SNB-75
[48] = test system: SNB-78
[49] = test system: SR
[50] = test system: SW-620
[51] = test system: TK-10
[52] = test system: U-251
[53] = test system: UACC-257
[54] = test system: UACC-62
[55] = test system: UO-31
[56] = test system: XF498
[57] = test system: DMS-114
[58] = test system: RPMI-8226
[59] = test system: DU-145
[60] = test system: Hs-578T
[61] = test system: MCF7
[62] = test system: MDA-MB-231
[63] = test system: MDA-N
[64] = test system: PC-3
[65] = test system: T47D

O=C1CC(c2ccccc2)=Nc2ccccc2N1
GI50 [1]: > 100 µM (inactive)
GI50 [2]: 24.7 µM (inactive)
GI50 [3]: > 100 µM (inactive)
GI50 [4]: > 100 µM (inactive)
GI50 [5]: > 100 µM (inactive)
GI50 [6]: 65 µM (inactive)
GI50 [7]: 98.9 µM (inactive)
GI50 [8]: > 100 µM (inactive)
GI50 [9]: > 100 µM (inactive)
GI50 [10]: > 100 µM (inactive)
GI50 [11]: > 100 µM (inactive)
GI50 [12]: 86.5 µM (inactive)
GI50 [13]: > 100 µM
GI50 [14]: 34.5 µM (inactive)
GI50 [15]: > 100 µM (inactive)
GI50 [16]: > 100 µM (inactive)
GI50 [17]: 81.1 µM (inactive)
GI50 [18]: > 100 µM (inactive)
GI50 [19]: > 100 µM (inactive)
GI50 [20]: > 100 µM (inactive)
GI50 [21]: > 100 µM (inactive)
GI50 [22]: > 100 µM (inactive)
GI50 [23]: 35 µM (inactive)
GI50 [24]: > 100 µM (inactive)
GI50 [25]: > 100 µM (inactive)
GI50 [26]: > 100 µM (inactive)
GI50 [27]: > 100 µM (inactive)
GI50 [28]: > 100 µM (inactive)
GI50 [29]: > 100 µM (inactive)
GI50 [30]: > 100 µM (inactive)
GI50 [31]: 42 µM (inactive)
GI50 [32]: > 100 µM (inactive)
GI50 [33]: > 100 µM (inactive)
GI50 [34]: > 100 µM (inactive)
GI50 [35]: > 100 µM (inactive)
GI50 [36]: > 100 µM (inactive)
GI50 [37]: > 100 µM (inactive)
GI50 [38]: > 100 µM (inactive)
GI50 [39]: > 100 µM (inactive)
GI50 [40]: > 100 µM (inactive)
GI50 [41]: > 100 µM (inactive)
GI50 [42]: > 100 µM (inactive)
GI50 [43]: > 100 µM (inactive)
GI50 [44]: > 100 µM (inactive)
GI50 [45]: > 100 µM (inactive)
GI50 [46]: > 100 µM (inactive)
GI50 [47]: > 100 µM (inactive)
GI50 [48]: > 100 µM (inactive)
GI50 [49]: > 100 µM (inactive)
GI50 [50]: 21.1 µM (inactive)
GI50 [51]: > 100 µM (inactive)
GI50 [52]: > 100 µM (inactive)
GI50 [53]: > 100 µM (inactive)
GI50 [54]: > 100 µM (inactive)
GI50 [55]: > 100 µM (inactive)
GI50 [56]: > 100 µM (inactive)

COc1ccc([Se]c2ccc(OC)cc2)cc1
GI50 [1]: > 100 µM (inactive)
GI50 [2]: 99.1 µM (inactive)
GI50 [3]: > 100 µM (inactive)
GI50 [4]: > 100 µM (inactive)
GI50 [5]: 23.3 µM (inactive)
GI50 [6]: 58.9 µM (inactive)
GI50 [7]: > 100 µM (inactive)
GI50 [8]: > 100 µM (inactive)
GI50 [57]: 29.1 µM (inactive)
GI50 [9]: 92.5 µM (inactive)
GI50 [11]: > 100 µM (inactive)
GI50 [12]: 55.2 µM (inactive)
GI50 [13]: 68.1 µM
GI50 [14]: 41.5 µM (inactive)
GI50 [15]: 27.9 µM (inactive)
GI50 [16]: > 100 µM (inactive)
GI50 [17]: 23.9 µM (inactive)
GI50 [18]: 43.6 µM (inactive)
GI50 [19]: > 100 µM (inactive)
GI50 [20]: 60.1 µM (inactive)
GI50 [21]: 65.2 µM (inactive)
GI50 [22]: > 100 µM (inactive)
GI50 [23]: > 100 µM (inactive)
GI50 [25]: > 100 µM (inactive)
GI50 [26]: 69.7 µM (inactive)
GI50 [27]: 41.5 µM (inactive)
GI50 [28]: > 100 µM (inactive)
GI50 [29]: 17.4 µM (inactive)
GI50 [30]: 56.2 µM (inactive)
GI50 [31]: > 100 µM (inactive)
GI50 [32]: 27.2 µM (inactive)
GI50 [33]: 76.6 µM (inactive)
GI50 [36]: > 100 µM (inactive)
GI50 [58]: 24.4 µM (inactive)
GI50 [37]: 19.5 µM (inactive)
GI50 [38]: 56.9 µM (inactive)
GI50 [39]: > 100 µM (inactive)
GI50 [40]: 73.3 µM (inactive)
GI50 [41]: > 100 µM (inactive)
GI50 [42]: > 100 µM (inactive)
GI50 [43]: 48.2 µM (inactive)
GI50 [44]: > 100 µM (inactive)
GI50 [45]: > 100 µM (inactive)
GI50 [46]: > 100 µM (inactive)
GI50 [47]: 19.3 µM (inactive)
GI50 [50]: > 100 µM (inactive)
GI50 [51]: > 100 µM (inactive)
GI50 [52]: > 100 µM (inactive)
GI50 [53]: 48.2 µM (inactive)
GI50 [54]: > 100 µM (inactive)
GI50 [55]: 2.09 µM (inactive)
GI50 [56]: > 100 µM (inactive)

COc1cc([C@@H]2c3cc4c(c(O)c3C[C@H]3COC(=O)[C@@H]32)OCO4)cc(OC)c1OC [BETA-PELTATIN A]
GI50 [1]: 0.0241 µM (active)
GI50 [3]: 0.015 µM (active)
GI50 [4]: 0.0241 µM (active)
GI50 [5]: 0.015 µM (active)
GI50 [6]: 1.8 µM (inactive)
GI50 [7]: 0.0238 µM (active)
GI50 [8]: 0.015 µM (active)
GI50 [57]: 0.015 µM (active)
GI50 [9]: 0.015 µM (active)
GI50 [59]: < 0.0241 µM (active)
GI50 [10]: 0.282 µM (active)
GI50 [11]: 0.015 µM (active)
GI50 [12]: 0.015 µM (active)
GI50 [13]: 0.015 µM
GI50 [15]: 1.26 µM (inactive)
GI50 [16]: 0.323 µM (active)
GI50 [17]: 0.015 µM (active)
GI50 [60]: 0.0241 µM (active)
GI50 [19]: 0.015 µM (active)
GI50 [20]: 19.5 µM (inactive)
GI50 [22]: 0.015 µM (active)
GI50 [23]: 0.0267 µM (active)
GI50 [25]: 0.0241 µM (active)
GI50 [26]: 0.0548 µM (active)
GI50 [61]: 0.015 µM (active)
GI50 [62]: 0.00596 µM (active)
GI50 [63]: 0.000284 µM (active)
GI50 [27]: 0.015 µM (active)
GI50 [28]: 0.0156 µM (active)
GI50 [29]: 0.302 µM (active)
GI50 [31]: 0.0254 µM (active)
GI50 [32]: 0.0676 µM (active)
GI50 [33]: 0.015 µM (active)
GI50 [34]: 0.0627 µM (active)
GI50 [35]: 21.4 µM (inactive)
GI50 [36]: 0.015 µM (active)
GI50 [64]: 0.0241 µM (active)
GI50 [58]: 0.015 µM (active)
GI50 [38]: 0.015 µM (active)
GI50 [39]: 0.0238 µM (active)
GI50 [41]: 4.18 µM (inactive)
GI50 [42]: 0.015 µM (active)
GI50 [45]: 0.015 µM (active)
GI50 [46]: 0.015 µM (active)
GI50 [47]: 1.61 µM (inactive)
GI50 [48]: 0.015 µM (active)
GI50 [49]: 109 µM (inactive)
GI50 [50]: 0.015 µM (active)
GI50 [65]: 51.9 µM (inactive)
GI50 [51]: 31.6 µM (inactive)
GI50 [55]: 0.0693 µM (active)
GI50 [56]: 0.015 µM (active)

C/C(=C\Cc1cc(O)ccc1O)CCc1c(C)cc(O)c(C=O)c1C [PANICEIN B3]
GI50 [1]: 25.5 µM (inactive)
GI50 [2]: 40.3 µM (inactive)
GI50 [3]: 27.4 µM (inactive)
GI50 [4]: 17.5 µM (inactive)
GI50 [5]: 22.4 µM (inactive)
GI50 [7]: 17.7 µM (inactive)
GI50 [8]: 21.6 µM (inactive)
GI50 [57]: 14.7 µM (inactive)
GI50 [9]: 20.6 µM (inactive)
GI50 [10]: 31.1 µM (inactive)
GI50 [11]: 43.2 µM (inactive)
GI50 [12]: 19.3 µM (inactive)
GI50 [13]: 27.4 µM
GI50 [14]: 34.6 µM (inactive)
GI50 [15]: 17.8 µM (inactive)
GI50 [17]: 18.9 µM (inactive)
GI50 [18]: 20.4 µM (inactive)
GI50 [19]: 23.2 µM (inactive)
GI50 [20]: > 100 µM (inactive)
GI50 [21]: 39.9 µM (inactive)
GI50 [22]: 32.3 µM (inactive)
GI50 [24]: 15.4 µM (inactive)
GI50 [25]: 23.5 µM (inactive)
GI50 [27]: > 100 µM (inactive)
GI50 [28]: 21.3 µM (inactive)
GI50 [29]: 22.5 µM (inactive)
GI50 [30]: 22.5 µM (inactive)
GI50 [31]: 24.3 µM (inactive)
GI50 [32]: 10.1 µM (inactive)
GI50 [33]: 24.9 µM (inactive)
GI50 [34]: 26.4 µM (inactive)
GI50 [36]: 17.1 µM (inactive)
GI50 [58]: > 100 µM (inactive)
GI50 [37]: 15.9 µM (inactive)
GI50 [38]: 15.8 µM (inactive)
GI50 [39]: 27 µM (inactive)
GI50 [40]: 18.5 µM (inactive)
GI50 [41]: 24 µM (inactive)
GI50 [42]: 23 µM (inactive)
GI50 [43]: 17.4 µM (inactive)
GI50 [44]: 32.7 µM (inactive)
GI50 [45]: 28.2 µM (inactive)
GI50 [46]: 44.5 µM (inactive)
GI50 [47]: 13.9 µM (inactive)
GI50 [49]: 28.4 µM (inactive)
GI50 [50]: 45.9 µM (inactive)
GI50 [51]: 34.8 µM (inactive)
GI50 [52]: 19.5 µM (inactive)
GI50 [55]: 23.5 µM (inactive)
GI50 [56]: 18.8 µM (inactive)
